The values below come from ChEMBL document CHEMBL5634077, “Recent advances in 1,2,3- and 1,2,4-triazole hybrids as antimicrobials and their SAR: A critical review” (2023).

≈ marks a conversion by molar mass, not a printed value.

Holding throughout (format): functional
The test system of assay [1] is Candida albicans. As to the kind of experiment: Antifungal activity against Candida albicans Y0109 assessed as reduction in fungal growth incubated for 24 hrs by NCCLS based assay.
Assay [2] relates to Aspergillus fumigatus. As to the kind of experiment: Antifungal activity against Aspergillus fumigatus 7544 assessed as reduction in fungal growth incubated for 5 to 7 days by NCCLS based assay. To be noted: time 5-7 day.
Assay [3] has as its system Nakaseomyces glabratus. As to the kind of experiment: Antifungal activity against Candida glabrata 537 assessed as reduction in fungal growth incubated for 72 hrs by NCCLS based assay.
For assay [4], the system named is Nannizzia gypsea. As to the kind of experiment: Antifungal activity against Microsporum gypseum assessed as reduction in fungal growth incubated for 5 to 7 days by NCCLS based assay. To be noted: time 5-7 day.
The test system of assay [5] is Cryptococcus neoformans. As to the kind of experiment: Antifungal activity against Cryptococcus neoformans 32609 assessed as reduction in fungal growth incubated for 72 hrs by NCCLS based assay.
Assay [6] concerns Trichophyton rubrum. As to the kind of experiment: Antifungal activity against Trichophyton rubrum assessed as reduction in fungal growth incubated for 5 to 7 days by NCCLS based assay. The conditions noted are these: time 5-7 day.
For assay [7], the system named is Candida albicans. As to the kind of experiment: Antifungal activity against Candida albicans SC5314 assessed as reduction in fungal growth incubated for 24 hrs by NCCLS based assay.
Assay [8] concerns Staphylococcus aureus. As to the kind of experiment: Antibacterial activity against Staphylococcus aureus assessed as diameter of inhibition zone incubated for 24 hrs by well diffusion assay. For orientation: A growth-free zone around the sample is the usual read-out of agar diffusion tests.
Assay [9] relates to Escherichia coli. As to the kind of experiment: Antibacterial activity against Escherichia coli RCMB 010052 assessed as diameter of inhibition zone incubated for 24 hrs by well diffusion assay.
For assay [10], the system named is Proteus vulgaris. As to the kind of experiment: Antibacterial activity against Proteus vulgaris RCMB 004 assessed as diameter of inhibition zone incubated for 24 hrs by well diffusion assay.
Assay [11] concerns Geotrichum candidum. As to the kind of experiment: Antifungal activity against Geotrichum candidum RCMB 052006 assessed as diameter of inhibition zone incubated for 24 hrs by well diffusion assay.
Assay [12] has as its system Aspergillus flavus. As to the kind of experiment: Antifungal activity against Aspergillus flavus assessed as diameter of inhibition zone incubated for 24 hrs by well diffusion assay.
Assay [13] has as its system Bacillus subtilis. As to the kind of experiment: Antibacterial activity against Bacillus subtilis RCMB 010069 assessed as diameter of inhibition zone incubated for 24 hrs by well diffusion assay.
The subject of assay [14] is Enterococcus faecalis. As to the kind of experiment: Antibacterial activity against Enterococcus faecalis assessed as bacterial growth inhibition.
The test system of assay [15] is Staphylococcus epidermidis. As to the kind of experiment: Antibacterial activity against Methicillin-sensitive Staphylococcus epidermidis assessed as bacterial growth inhibition.
The subject of assay [16] is Staphylococcus epidermidis. As to the kind of experiment: Antibacterial activity against Methicillin-resistant Staphylococcus epidermidis assessed as bacterial growth inhibition.
In assay [17] the test system is Staphylococcus aureus. As to the kind of experiment: Antibacterial activity against Methicillin-resistant Staphylococcus aureus assessed as bacterial growth inhibition.
Assay [18] relates to Staphylococcus aureus. As to the kind of experiment: Antibacterial activity against Methicillin-sensitive Staphylococcus aureus assessed as bacterial growth inhibition.
In assay [19] the test system is Enterococcus faecium. As to the kind of experiment: Antibacterial activity against Enterococcus faecium assessed as inhibition of bacterial growth.

For orientation: MIC80 means the lowest concentration that inhibits either 80% of growth or 80% of the strains tested, depending on the study. Consider `C[C@@H](OCc1cc(-c2cccc(F)c2F)no1)[C@](O)(Cn1cncn1)c1ccc(F)cc1F`, for which the MIC80 in assay [1] turned out to be 0.25 µg/mL (≈ 0.541 µM); in assay [2], 8 µg/mL (≈ 17.3 µM); in assay [3], 0.5 µg/mL (≈ 1.08 µM); in assay [4], 1 µg/mL (≈ 2.16 µM); in assay [5], 1 µg/mL (≈ 2.16 µM); in assay [6], 2 µg/mL (≈ 4.33 µM). Further, the MIC80 in assay [7] turned out to be 0.5 µg/mL (≈ 1.08 µM).

With `Cc1ccc(-c2cc(CO[C@H](C)[C@](O)(Cn3cncn3)c3ccc(F)cc3F)on2)cc1`, the MIC80 worked out at 0.125 µg/mL (≈ 0.284 µM) in assay [1]; 8 µg/mL (≈ 18.2 µM) in assay [2]; 0.5 µg/mL (≈ 1.14 µM) in [3]; 2 µg/mL (≈ 4.54 µM) in assay [4]; 2 µg/mL (≈ 4.54 µM) in [5]; 4 µg/mL (≈ 9.08 µM) in [6]. The MIC80 in [7] came out at 0.25 µg/mL (≈ 0.568 µM).

Turning to `Cc1ccccc1-c1cc(CO[C@H](C)[C@](O)(Cn2cncn2)c2ccc(F)cc2F)on1`, the MIC80 in assay [1] came out at 0.031 µg/mL (≈ 0.0704 µM); in assay [2], 4 µg/mL (≈ 9.08 µM); in [3], 0.25 µg/mL (≈ 0.568 µM); in assay [4], 2 µg/mL (≈ 4.54 µM); in assay [5], 1 µg/mL (≈ 2.27 µM); in [6], 4 µg/mL (≈ 9.08 µM). Further, the MIC80 in [7] was found to be 0.125 µg/mL (≈ 0.284 µM).

Regarding `Cc1c(-c2cc(-c3ccccn3)nc(S)n2)nnn1-c1ccc(-n2nnc(-c3cc(-c4ccccn4)nc(S)n3)c2C)cc1`, the “diameter of the inhibition zone (DIZ)” value in assay [8] was 23.3 mm; in [9], 35.2 mm; in assay [10], 23.3 mm; in assay [11] it was 26.3 mm; in [12], 24.02 mm; in [13], 36.2 mm.

Regarding `Cc1c(C(=O)/C=C/c2ccncc2)nnn1-c1ccc(-n2nnc(C(=O)/C=C/c3ccncc3)c2C)cc1`, the “diameter of the inhibition zone (DIZ)” value in [8] is given as 19.2 mm; in assay [9], 26.3 mm; in assay [10] it was 17.3 mm; in assay [11], 21.3 mm; in assay [12], 18.43 mm; in assay [13], 28.2 mm.

For `Cc1c(-c2cc(-c3c[nH]c4ccccc34)nc(NN)n2)nnn1-c1ccc(-n2nnc(-c3cc(-c4c[nH]c5ccccc45)nc(NN)n3)c2C)cc1`, the “diameter of the inhibition zone (DIZ)” value in assay [8] worked out at 20.9 mm; in assay [9], 33.9 mm; in assay [10], 26.9 mm; in [11], 24.4 mm; in assay [12], 21.3 mm; in [13], 41.3 mm.

With `C[C@@H](OCc1cc(-c2ccc(F)cc2)no1)[C@](O)(Cn1cncn1)c1ccc(F)cc1F`, the MIC80 was determined as 0.031 µg/mL (≈ 0.0698 µM) in assay [1]; 4 µg/mL (≈ 9 µM) in [2]; 0.125 µg/mL (≈ 0.281 µM) in assay [3]; 0.5 µg/mL (≈ 1.13 µM) in assay [4]; 0.5 µg/mL (≈ 1.13 µM) in assay [5]; 1 µg/mL (≈ 2.25 µM) in assay [6]. Also, the MIC80 in [7] was determined as 0.031 µg/mL (≈ 0.0698 µM).

In general, MIC refers to the lowest concentration found to suppress growth. `CCO/N=C1/C(=O)N(Cc2cn(CC(=O)N3CCC[C@@H]4CN(c5c(F)cc6c(=O)c(C(=O)O)cn(C7CC7)c6c5OC)C[C@@H]43)nn2)c2cc(C)ccc21`: the MIC in [14], in assay [15], in [16], in assay [17], in assay [18] and in assay [19] was 0.06 µg/mL (≈ 0.0826 µM) throughout.

Regarding `CCO/N=C1/C(=O)N(Cc2cn(CC(=O)N3CCC[C@@H]4CN(c5c(F)cc6c(=O)c(C(=O)O)cn(C7CC7)c6c5OC)C[C@@H]43)nn2)c2cc(F)ccc21`, the minimum inhibitory concentration (MIC) in assay [14], in assay [15], in assay [16], in [17], in assay [18] and in assay [19] was 0.06 µg/mL (≈ 0.0821 µM) throughout.

As to `Cc1c(C(=O)/C=C/c2cccnc2)nnn1-c1ccc(-n2nnc(C(=O)/C=C/c3cccnc3)c2C)cc1`, the “diameter of the inhibition zone (DIZ)” value worked out at 17.3 mm in assay [8]; 23.7 mm in assay [9]; 17.8 mm in [10]; 19.3 mm in assay [11]; 18.03 mm in assay [12]; 29.3 mm in assay [13].

In the case of `Cc1c(-c2cc(-c3c[nH]c4ccccc34)nc(S)n2)nnn1-c1ccc(-n2nnc(-c3cc(-c4c[nH]c5ccccc45)nc(S)n3)c2C)cc1`, the “diameter of the inhibition zone (DIZ)” value in assay [8] is given as 20.6 mm; in assay [9] it was 30.9 mm; in [10], 22.2 mm; in assay [11] it was 21.1 mm; in assay [12], 19.1 mm; in assay [13], 37.8 mm.

Regarding `CCO/N=C1/C(=O)N(Cc2cn(CC(=O)N3CCC[C@@H]4CN(c5c(F)cc6c(=O)c(C(=O)O)cn(C7CC7)c6c5OC)C[C@@H]43)nn2)c2cccc(F)c21`, the MIC in [14], in assay [15], in assay [16], in assay [17], in [18] and in assay [19] was 0.06 µg/mL (≈ 0.0821 µM) each time.

On to `Cc1c(-c2cc(-c3c[nH]c4ccccc34)[nH]n2)nnn1-c1ccc(-n2nnc(-c3cc(-c4c[nH]c5ccccc45)[nH]n3)c2C)cc1`, for which the “diameter of the inhibition zone (DIZ)” value in [8] turned out to be 19.3 mm; in assay [9], 28.4 mm; in assay [10] it was 19.2 mm; in assay [11], 23.9 mm; in assay [12], 19.5 mm; in assay [13] it was 33.5 mm.

As to `Cc1c(C(=O)/C=C/c2c[nH]c3ccccc23)nnn1-c1ccc(-n2nnc(C(=O)/C=C/c3c[nH]c4ccccc34)c2C)cc1`, the “diameter of the inhibition zone (DIZ)” value in [8] was found to be 12 mm; in [9] it was 25 mm; in assay [10], 15.4 mm; in [11] it was 17.2 mm; in [12] it was 19.2 mm; in assay [13], 34.2 mm.

Consider `Cc1c(C(=O)/C=C/c2ccccn2)nnn1-c1ccc(-n2nnc(C(=O)/C=C/c3ccccn3)c2C)cc1`, for which the “diameter of the inhibition zone (DIZ)” value in assay [8] was 22.02 mm; in assay [9], 31.3 mm; in assay [10], 24.37 mm; in [11], 24 mm; in assay [12] it was 22 mm; in [13], 32.2 mm.

For `CCO/N=C1/C(=O)N(Cc2cn(CC(=O)N3CCC[C@@H]4CN(c5c(F)cc6c(=O)c(C(=O)O)cn(C7CC7)c6c5OC)C[C@@H]43)nn2)c2ccccc21`, the minimum inhibitory concentration (MIC) in assay [14], in assay [15], in [16], in assay [17], in assay [18] and in [19] was 0.06 µg/mL (≈ 0.0842 µM) in each case.

As for `COc1c(N2C[C@@H]3CCCN[C@@H]3C2)c(F)cc2c(=O)c(C(=O)O)cn(C3CC3)c12` [MOXIFLOXACIN], the MIC in assay [14], in assay [15], in assay [16], in [17], in assay [18] and in assay [19] was 0.06 µg/mL (≈ 0.149 µM) in each case.
